These results are taken from patent US4914215A, “Aminopropyl thiophene compounds” (The United States of America as represented by the United …, priority 1989, dated 1990).

Molecules are shown by their SMILES.

Data set [1] relates to brain. In words: Tissue distribution of 5-halothiophene-2-isopropylamines in Fisher rats. Type of data set: in vivo. The following applies: in words. The source says: 5-HALOTHIOPHENE-2-ISOPROPYLAMINES
Mean Brian. % Dose/gm (Mean Brain:Blood)

For data set [2], the system named is brain. To be noted: five minutes after administration; versus HIPDM; cited from earlier work.
The subject of another data set is lungs. To be noted: versus HIPDM; cited from earlier work.

Consider `CC(N)Cc1ccc([82Br])s1` (stereo not shown) [Br-82, 2-(2-aminopropyl)-5-bromothiophene], for which, in the data set with brain [1], the brain retention entry was “good brain uptake and retention”; the brain uptake entry was “good brain uptake”.

As for `CC(N)Cc1ccc([125I])s1` (stereo not shown) [Compound I-125, 2-(2-aminopropyl)-5-radiohalothiophene], in the data set with brain [1], the brain retention entry is “good retention”, the brain uptake result is “high brain uptake” and the brain-to-blood ratios entry is recorded as “high brain-to-blood ratios”.

For the compound `CC(C)NC(C)Cc1ccc(I)cc1` (stereo not shown) [IMP, N-isopropyl-p-iodoamphetamine], the “amount of activity in the brain relative to HIPDM” value with brain [2] is reported as “almost twice”. In addition, in the data set on lungs, the “clearance of the lungs relative to HIPDM” value is listed as “faster”.
